The supplement of paper PMC4862054

How the values were obtained:
Experiment in all cases: normalised response (% of control), CellTox Green; higher = less cell death (100 = DMSO, 0 = benzethonium chloride kill control)
Conditions in all cases: incubation time: 72 h
[1] = tested on: Hs578T
Procedure, shortened: (§1)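 Normalised signals at single concentrations make up the values. They come from breast cancer cell lines seeded (20 µl suspension) into 384-well plates with compound at 5 concentrations in 10-fold steps over a compound-specific 10,000-fold range, incubated 72 h, and read for CellTox Green fluorescence then CellTiter-Glo luminescence. Each plate was normalised to 0.1 % DMSO (100) and a positive kill control (0).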

[2] = tested on: HCC1599
Procedure, shortened: as §1

[3] = tested on: MDA-MB-231
Procedure, shortened: as §1

[4] = tested on: DU-4475
Procedure, shortened: as §1

[5] = tested on: MDA-MB-453
Procedure, shortened: as §1

[6] = tested on: BT-549
Procedure, shortened: as §1

[7] = tested on: MCF-10A
Procedure, shortened: as §1

[8] = tested on: CAL-51
Procedure, shortened: as §1

[9] = tested on: MFM-223
Procedure, shortened: as §1

[10] = tested on: CAL-148
Procedure, shortened: as §1

[11] = tested on: CAL-85-1
Procedure, shortened: as §1

[12] = tested on: CAL-120
Procedure, shortened: as §1

[13] = tested on: BT-474
Procedure, shortened: as §1

[14] = tested on: MDA-MB-436
Procedure, shortened: as §1

[15] = tested on: HCC1143
Procedure, shortened: as §1

[16] = tested on: MDA-MB-468
Procedure, shortened: as §1

[17] = tested on: HDQ-P1
Procedure, shortened: as §1

[18] = tested on: HCC1937
Procedure, shortened: as §1

SMILES | normalised response [1] | normalised response [2] | normalised response [3] | normalised response [4] | normalised response [5] | normalised response [6] | normalised response [7] | normalised response [8] | normalised response [9] | normalised response [10] | normalised response [11] | normalised response [12] | normalised response [13] | normalised response [14] | normalised response [15] | normalised response [16] | normalised response [17] | normalised response [18]
N#CC[C@H](C1CCCC1)n1cc(-c2ncnc3[nH]ccc23)cn1 [Ruxolitinib] (10000 nM) | 118% | 96.7% | 93.4% | 98.2% | 98.4% | 113% | 90% | 76.2% | 94.1% | 95.1% | 84.8% | 98.7% | 98.6% | 97.7% | 98.3% | 149% | – | –
COc1cccc2c1C(=O)c1c(O)c3c(c(O)c1C2=O)C[C@@](O)(C(=O)CO)C[C@@H]3O[C@H]1C[C@H](N)[C@H](O)[C@H](C)O1 [Doxorubicin] (100 nM) | 103% | 100% | 111% | 96.4% | 109% | 160% | 115% | 43.3% | 86.3% | 81.4% | 96.4% | 100% | 105% | 95.2% | – | 151% | 78.6% | 134%
C=CC[C@@H]1/C=C(\C)C[C@H](C)C[C@H](OC)[C@H]2O[C@@](O)(C(=O)C(=O)N3CCCC[C@H]3C(=O)O[C@H](/C(C)=C/[C@@H]3CC[C@@H](O)[C@H](OC)C3)[C@H](C)[C@@H](O)CC1=O)[C@H](C)C[C@@H]2OC [Tacrolimus] (10000 nM) | 112% | 100% | – | 99.8% | 100% | 103% | 70.6% | 97.9% | 98.3% | 95.8% | 92.3% | 97.6% | 101% | 92.5% | 91.2% | 52.5% | 88.2% | 93.6%
CS(=O)(=O)c1ccc(C(=O)Nc2ccc(Cl)c(-c3ccccn3)c2)c(Cl)c1 [Vismodegib] (10000 nM) | 82.8% | 98.8% | 94.1% | 100% | 80.9% | 119% | 85.5% | 102% | 98% | 105% | 138% | 100% | 102% | 85.5% | 76.7% | 226% | 113% | 84.1%
COc1cccc2cc(-c3nc([C@H]4CC[C@H](C(=O)O)CC4)n4ncnc(N)c34)[nH]c12 [OSI-027] (10000 nM) | 130% | 107% | 130% | 99.7% | 103% | 113% | 101% | 94.5% | 84% | 72.5% | 89.2% | 96.9% | 94.2% | 109% | 115% | 86% | 106% | 112%
CN(C)C/C=C/C(=O)Nc1cc2c(Nc3ccc(F)c(Cl)c3)ncnc2cc1O[C@H]1CCOC1 [Afatinib] (1000 nM) | – | 104% | 117% | 106% | 97.1% | 107% | 99.6% | 106% | 99.8% | 94.1% | 66.4% | 94.1% | 52.4% | 102% | – | 110% | 93.8% | –
N#CC[C@H](C1CCCC1)n1cc(-c2ncnc3[nH]ccc23)cn1 [Ruxolitinib] (1000 nM) | 83.8% | 95.2% | 107% | 95.8% | 102% | 127% | – | 111% | 96.2% | 104% | 108% | 96.5% | 100% | 96.2% | 102% | 119% | 86.3% | –
OC[C@H]1O[C@@H](n2cnc3c2N=CNC[C@H]3O)C[C@@H]1O [Pentostatin] (1000 nM) | 97.8% | 95.5% | 116% | 103% | 107% | 111% | 108% | 103% | 96% | 95.5% | 106% | 103% | 98.9% | 102% | 101% | 100% | 103% | 104%
CC[C@]1(O)C[C@@H]2CN(CCc3c([nH]c4ccccc34)[C@@](C(=O)OC)(c3cc4c(cc3OC)N(C)[C@H]3[C@@](O)(C(=O)OC)[C@H](OC(C)=O)[C@]5(CC)C=CCN6CC[C@]43[C@@H]65)C2)C1 [Vinblastine] (100 nM) | -12.8% | 78.4% | 28.5% | 93.8% | 103% | 66.2% | 46% | 32.1% | 54.7% | 75.2% | 61.1% | 88.2% | 67.5% | 88.4% | 56.7% | 19.1% | 96.8% | -65.7%
Nc1nc(Cl)nc2c1ncn2[C@H]1C[C@H](O)[C@@H](CO)O1 [Cladribine] (100 nM) | 98% | 98.3% | – | 103% | 108% | 127% | – | 109% | 78.7% | 95.7% | 104% | 101% | 99.7% | 73.8% | 119% | 72.2% | 110% | 85.4%
S=c1[nH]cnc2nc[nH]c12 [Mercaptopurine] (10000 nM) | 121% | 102% | 95.7% | 97.8% | 91.5% | 107% | 83.9% | 101% | 79.1% | 96.1% | 118% | 101% | 101% | 93.6% | 108% | 185% | 102% | 89.1%
COc1cccc2c1C(=O)c1c(O)c3c(c(O)c1C2=O)C[C@@](O)(C(=O)CO)C[C@@H]3O[C@H]1C[C@H](N)[C@H](O)[C@H](C)O1 [Doxorubicin] (1000 nM) | 159% | 149% | 160% | 111% | 130% | 185% | 129% | 22.4% | 68% | 66.4% | 77.5% | 92.7% | 105% | 126% | 143% | 363% | 120% | 148%
C[C@]1(c2nc3c(C(N)=O)cccc3[nH]2)CCCN1 [Veliparib] (1000 nM) | 91.6% | 105% | 116% | 99% | 106% | 129% | 106% | 100% | 98.1% | 105% | 90% | 102% | 103% | 91.3% | 64.8% | 139% | 99% | 120%
C[C@]1(c2nc3c(C(N)=O)cccc3[nH]2)CCCN1 [Veliparib] (10000 nM) | 109% | 117% | 88.2% | 103% | 95.4% | 106% | 107% | 86.6% | 92.3% | – | 87.9% | 98.2% | 96.5% | 112% | 110% | 125% | 90.5% | 110%
CS(=O)(=O)c1ccc(C(=O)Nc2ccc(Cl)c(-c3ccccn3)c2)c(Cl)c1 [Vismodegib] (1000 nM) | 100% | 85.9% | 90.8% | 99% | 99.7% | 99.3% | 88.2% | 86.1% | 99.1% | 104% | 94.4% | 95% | 100% | 98% | – | 149% | 88.1% | 106%
CN1CCC(COc2cnc(-c3cccc(Cn4nc(-c5cccc(C#N)c5)ccc4=O)c3)nc2)CC1 (1000 nM) | – | 106% | 125% | 105% | 105% | 115% | 88.3% | 99.9% | 94% | 103% | 85% | 95.6% | 98.4% | 112% | 128% | 140% | 95.5% | 123%
C=CC[C@@H]1/C=C(\C)C[C@H](C)C[C@H](OC)[C@H]2O[C@@](O)(C(=O)C(=O)N3CCCC[C@H]3C(=O)O[C@H](/C(C)=C/[C@@H]3CC[C@@H](O)[C@H](OC)C3)[C@H](C)[C@@H](O)CC1=O)[C@H](C)C[C@@H]2OC [Tacrolimus] (1000 nM) | – | 90.2% | 108% | 100% | 106% | 116% | 108% | 110% | – | 104% | 96.3% | 99.5% | 99.5% | 89.6% | 102% | 130% | – | 97.2%
Clc1ccc(C(c2ccccc2Cl)C(Cl)Cl)cc1 (configuration not stated) [Mitotane] (1000 nM) | – | 93.5% | 95.2% | 98.3% | 100% | 115% | 96.4% | 103% | 93.7% | 104% | 108% | 98.1% | 100% | 96.3% | 87% | 140% | 56.1% | 99.9%
Nc1nc(Cl)nc2c1ncn2[C@H]1C[C@H](O)[C@@H](CO)O1 [Cladribine] (1000 nM) | 111% | 96% | 86.3% | 100% | 101% | 86.3% | 100% | 107% | 74.4% | 73.7% | 83.4% | 101% | 102% | 85.4% | – | 50.6% | 95.9% | 92.2%
Cc1ccc(F)c(NC(=O)Nc2ccc(-c3cccc4[nH]nc(N)c34)cc2)c1 [Linifanib] (1000 nM) | 105% | 104% | 110% | 106% | 102% | 122% | 90% | 99.5% | 101% | 95.7% | 65.7% | 97.9% | 101% | 107% | 87.2% | 86.9% | – | 104%
Clc1ccc(C(c2ccccc2Cl)C(Cl)Cl)cc1 (configuration not stated) [Mitotane] (10000 nM) | 105% | 99.5% | – | 97.7% | 104% | 93.4% | 100% | 98.5% | 96.9% | 98.1% | 107% | 95.6% | 98% | 99.5% | 68.9% | 80.3% | 106% | –
COc1cccc2cc(-c3nc([C@H]4CC[C@H](C(=O)O)CC4)n4ncnc(N)c34)[nH]c12 [OSI-027] (1000 nM) | 106% | 101% | 65% | 97.3% | 105% | 102% | 106% | 104% | 98.9% | 107% | 93.6% | 97.3% | 100% | 91.9% | – | 119% | 108% | –
